These results are taken from US9096594B2, “Kinase inhibitors and methods of use thereof” (priority 2012, dated 2015).

Assay [1] has as its target CK1δ (Homo sapiens (Human), UniProt P48730). The assay is described as follows: biochemical.
Text: Approximately 20,000 Response Units (RU) of anti GST-antibody (GE Healthcare Life Sciences) were immobilized on Flow Cell (FC) 1 and FC2 of a new, freshly conditioned CM5 Sensor Chip (GE Healthcare Life Sciences) in a Biacore T100 instrument utilizing the immobilization wizard of the T100 software package. Approximately 1,500 RU of recombinant GST (GE Healthcare Life Sciences) was then captured on FC1 utilizing the capture wizard protocol of the T100 software package. FC1 is used as a reference subtraction point for this and all SPR assays. Approximately 2,700 RU of recombinant GST-CK1δ was then captured on FC2 utilizing the capture wizard protocol of the T100 software package. FC2 is used as the active flowcell for this and all SPR assays. The analyte plate is generated in dose response fashion in TBS buffer containing a final concentration of 2% DMSO, with a final analyte concentration of 10 μM, 100 nM and 10 nM. A zero value is determined by running injections of buffer containing only 2% DMSO and no analyte. All injections are run in duplicate and are reference subtracted from FC1. A method consisting of a 60 second contact time and 60 second wash time with a flow rate of 30 μL/min was employed. […] Analysis of compounds was done using the 1:1 binding model and affinity measurements in the Biacore T100 evaluation software package.
Conditioning new chip: PBS immobilization buffer was loaded into buffer shelf and insert buffer line A. Unused CM5 sensor chip was loaded into instrument per user manual. Chip was primed with 6 minutes of buffer injection at 30 μL/min.
Primed chip again as described above. Generated anti GST antibody solution by mixing 4.5 μL anti GST antibody (GE Healthcare Life Sciences, GST Capture Kit) with 95.5 μL immobilization buffer (GE Healthcare Life Sciences, GST Capture Kit). Put solution into 700 μL small vial and cap. Repeated. Placed both vials in reagent rack 1 of Biacore T100 instrument and insert into machine per user manual. Initiated immobilization of anti GST antibody by utilizing the immobilization Wizard protocol of Biacore T100 software. Immobilized approximately 20,000 Response Units (RU) of anti GST antibody on FC1 and FC2. […] Inserted buffer line A. Repeated prime procedure. Generated GST protein solution by mixing 2 μL of recombinant GST (GE Healthcare Life Sciences, GST Capture Kit) with 98 μL TBS 2% DMSO buffer. Generated GST-CK1δ protein solution by mixing 5 μL of recombinant GST-CK1δ with 95 μL TBS 2% DMSO running buffer. Placed GST protein solution in position B1 on reagent rack 1. Placed GST-CK1δ protein solution in position Cl on reagent rack 1. Initiated a manual injection run and inject for 30 seconds at 5 μL/min GST protein solution on FC1 to generate reference flow cell. […] Captured approximately 1500 RU GST protein on FC1. Captured approximately 2700 RU GST-CK1δ protein on FC2.
An analyte plate was generated for the assay. Using a standard deep volume 384 well plate, placed 100 μL of a 10 μM analyte in TBS 2% DMSO solution wells A1 and A2. Placed 100 μL of a 50 nM analyte in TBS 2% DMSO solution in wells A3 and A4. Placed 100 μL of a 10 nM analyte in TBS 2% DMSO solution in wells A5 and A6. Placed 100 μL of TBS 2% DMSO running buffer in wells A7 and A8. Repeated steps for subsequent analytes. Placed analyte plate in Biacore T100 per user manual.
In assay [2] the target is T1, GSK3β (Homo sapiens (Human), UniProt P49841). The assay can be described thus: biochemical.
Assay [3] addresses T1, GSK3β. The assay is described as follows: biochemical. The source holds these as a separate data set.
Assay [4] has as its target T2, GSK3α (Homo sapiens (Human), UniProt P49840). The assay is described as follows: biochemical.
Assay [5] has as its target T1, GSK3β. The assay is described as follows: biochemical. This is another data set of the same source.
Experimental: Human GSK3β as a GST fusion expressed in baculoviral system was purchased from BPS Bioscience (San Diego, Calif.). […] Reactions were incubated at room temperature for 60 minutes. 2.5 μL/well of ADP-Glo (Promega, V9103) was added with BioRAPTR, and incubated at room temperature for 40 minutes followed by addition of 5 μL/well of ADP-Glo detection reagent (Promega, V9103) with Combi nL (Thermo, Waltham, Mass.) and incubation at room temperature for 30 minutes. The plates were read on a ViewLux (PerkinElmer, Waltham, Mass.) for luminescence. Data were scaled using the positive and neutral controls and fitted for IC50 as described below.
100 mL/well compounds were pinned. […] Incubated at room temperature for 60 minutes. Added 20 μL/well of ADP-glo (Promega, V9103) with Combi, and incubated at room temperature for 40 minutes. Added 40 μL/well of ADP-glo (Promega, V9103) with Combi, incubated at room temperature for 30 minutes. Read on Envision for luminescence.
In assay [6] the target is T2, GSK3α.
For assay [7], the target named is CDK5/p25 (Homo sapiens (Human), UniProt Q00535).
Sequence of CDK5/p25 (Q00535 whole entry, species assumed): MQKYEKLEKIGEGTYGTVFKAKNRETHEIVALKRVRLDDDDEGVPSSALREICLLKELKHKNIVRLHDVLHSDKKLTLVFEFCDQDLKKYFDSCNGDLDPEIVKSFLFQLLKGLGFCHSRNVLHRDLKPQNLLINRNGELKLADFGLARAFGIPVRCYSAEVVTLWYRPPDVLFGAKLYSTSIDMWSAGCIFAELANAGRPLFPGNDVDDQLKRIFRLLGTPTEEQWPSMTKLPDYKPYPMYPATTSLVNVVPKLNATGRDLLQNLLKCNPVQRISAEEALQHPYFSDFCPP
Sequence of CDK5/p25 (Q15078 99-307 partner, species assumed): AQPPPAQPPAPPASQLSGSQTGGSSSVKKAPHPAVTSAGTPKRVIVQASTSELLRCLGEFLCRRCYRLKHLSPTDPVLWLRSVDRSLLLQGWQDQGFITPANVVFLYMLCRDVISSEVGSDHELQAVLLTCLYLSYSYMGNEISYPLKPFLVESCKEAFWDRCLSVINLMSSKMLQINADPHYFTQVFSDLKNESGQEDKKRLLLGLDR
Experimental: Biochemical characterization of these synthesized compounds were assayed against GSK3β and CDK5/p25, with CDK5/p25 serving as a counter target of GSK3β selectivity. […] The effects of these compounds on survival of SH-SY5Y pathophysiology cells were also monitored.
The target of assay [8] is T1, GSK3β.

Read-outs that look alike come from different tables or passages of the source.

Sequence of CK1δ (P48730 whole entry): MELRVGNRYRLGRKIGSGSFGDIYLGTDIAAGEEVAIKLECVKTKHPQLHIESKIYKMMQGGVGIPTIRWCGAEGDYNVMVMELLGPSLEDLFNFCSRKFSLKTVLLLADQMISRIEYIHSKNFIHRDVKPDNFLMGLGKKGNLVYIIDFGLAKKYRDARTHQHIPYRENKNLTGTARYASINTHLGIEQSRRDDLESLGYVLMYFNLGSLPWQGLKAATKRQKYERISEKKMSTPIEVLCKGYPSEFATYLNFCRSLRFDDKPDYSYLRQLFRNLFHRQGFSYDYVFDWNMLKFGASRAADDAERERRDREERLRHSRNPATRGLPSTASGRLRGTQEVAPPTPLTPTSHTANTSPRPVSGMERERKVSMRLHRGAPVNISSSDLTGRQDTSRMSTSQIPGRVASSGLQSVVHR
T1 sequence (P49841 whole entry): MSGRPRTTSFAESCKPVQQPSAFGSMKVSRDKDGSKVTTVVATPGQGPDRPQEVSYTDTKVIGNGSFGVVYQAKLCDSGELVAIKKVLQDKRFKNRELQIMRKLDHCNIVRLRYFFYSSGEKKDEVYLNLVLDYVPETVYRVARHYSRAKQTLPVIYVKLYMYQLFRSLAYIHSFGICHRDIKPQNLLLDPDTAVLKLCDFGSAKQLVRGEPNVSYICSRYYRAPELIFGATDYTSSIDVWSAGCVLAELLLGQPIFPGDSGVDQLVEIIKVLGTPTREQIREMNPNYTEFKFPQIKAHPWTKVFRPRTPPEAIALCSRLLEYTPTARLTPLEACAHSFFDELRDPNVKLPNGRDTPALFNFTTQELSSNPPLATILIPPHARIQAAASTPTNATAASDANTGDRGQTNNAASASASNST
T2 sequence (P49840 whole entry): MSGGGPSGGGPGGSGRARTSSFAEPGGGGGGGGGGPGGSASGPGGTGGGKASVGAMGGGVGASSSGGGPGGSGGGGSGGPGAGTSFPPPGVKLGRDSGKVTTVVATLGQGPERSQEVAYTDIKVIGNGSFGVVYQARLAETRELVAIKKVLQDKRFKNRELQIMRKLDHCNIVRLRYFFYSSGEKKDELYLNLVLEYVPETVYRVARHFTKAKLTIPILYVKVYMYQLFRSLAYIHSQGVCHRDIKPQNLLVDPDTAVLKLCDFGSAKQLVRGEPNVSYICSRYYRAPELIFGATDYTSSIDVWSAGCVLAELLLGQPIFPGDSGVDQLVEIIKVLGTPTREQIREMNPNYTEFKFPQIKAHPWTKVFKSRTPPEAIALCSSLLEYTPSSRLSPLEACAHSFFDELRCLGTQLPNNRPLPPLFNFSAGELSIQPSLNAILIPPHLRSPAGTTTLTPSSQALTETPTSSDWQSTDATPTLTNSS

Usually Kd stands for the equilibrium constant for the complex coming apart. What is called IC50 is the concentration that inhibits the measured activity by half. For the molecule `Cc1[nH]nc2c1C(c1cccs1)C1=C(CC(C)(C)CC1=O)N2` (racemic) [Compound 5, 3,7,7-trimethyl-4-(thiophen-2-yl)-6,7,8,9-tetrahydro-1H-pyrazolo[3,4-b]quinolin-5(4H)-one], the Kd in assay [1] and in assay [3] was 101 to 1000 nM in each case. Besides, the IC50 in assay [2], in assay [4] and in assay [5] was 101 to 1000 nM each time.
As to `Cc1[nH]nc2c1[C@H](c1ccccc1C(F)(F)F)C1=C(CC(C)(C)CC1=O)N2` (racemic) [Compound 28, 3,7,7-trimethyl-4-(2-(trifluoromethyl)phenyl)-6,7,8,9-tetrahydro-2H-pyrazolo[3,4-b]quinolin-5(4H)-one], the IC50 in assay [6], in assay [8] and in assay [5] was below 100 nM in each case. For the same molecule, the “ADP Glo Assay GSK3β vs CDK5 fold selectivity” value in assay [7] is on record as 12X.
In the case of `CC1(C)CC(=O)C2=C(C1)Nc1n[nH]c(C(F)(F)F)c1C2(C)c1ccccc1` (racemic) [Compound 68, 4,7,7-trimethyl-4-phenyl-3-(trifluoromethyl)-6,7,8,9-tetrahydro-2H-pyrazolo[3,4-b]quinolin-5(4H)-one], the IC50 in assay [6], in assay [8] and in assay [5] was below 100 nM in each case. The “ADP Glo Assay GSK3β vs CDK5 fold selectivity” value in assay [7] is given as 244X.
For `CC1(C)CC(=O)C2=C(C1)Nc1n[nH]c(C(F)(F)F)c1[C@@H]2c1ccccc1C(F)(F)F` (racemic) [Compound 72, 7,7-dimethyl-3-(trifluoromethyl)-4-(2-(trifluoromethyl)phenyl)-6,7,8,9-tetrahydro-2H-pyrazolo[3,4-b]quinolin-5(4H)-one], the IC50 in assay [6] and in assay [2] was below 100 nM in each case.
As to `Cc1[nH]nc2c1[C@H](c1ccccc1Br)C1=C(CC(C)(C)CC1=O)N2` (racemic) [Compound 80, 4-(2-bromophenyl)-3,7,7-trimethyl-6,7,8,9-tetrahydro-2H-pyrazolo[3,4-b]quinolin-5(4H)-one], the IC50 in assay [6] and in assay [2] was below 100 nM in each case.
Consider `Cc1[nH]nc2c1C(c1ccsc1)C1=C(CC(C)(C)CC1=O)N2` (centres unmarked) [Compound 8, 3,7,7-trimethyl-4-(thiophen-3-yl)-6,7,8,9-tetrahydro-1H-pyrazolo[3,4-b]quinolin-5(4H)-one], for which the equilibrium dissociation constant (Kd) in assay [1] and in assay [3] was 101 to 1000 nM in each case. The IC50 fell in the range of 101 to 1000 nM in assay [2], 101 to 1000 nM in assay [4] and 1000 to 5000 nM in assay [5].
`Cc1[nH]nc2c1C(c1ccc(Cl)s1)C1=C(CC(C)(C)CC1=O)N2` (centres unmarked) [Compound 9, 4-(5-chlorothiophen-2-yl)-3,7,7-trimethyl-6,7,8,9-tetrahydro-1H-pyrazolo[3,4-b]quinolin-5(4H)-one]: the Kd is 1000 to 5000 nM in assay [1] and 101 to 1000 nM in assay [3]. In addition, the IC50 in assay [2] lay within 101 to 1000 nM; in assay [4], 101 to 1000 nM; in assay [5], 1000 to 5000 nM.
With `Cc1[nH]nc2c1C(c1ccccc1Cl)C1=C(CC(C)(C)CC1=O)N2` (centres unmarked) [Compound 13, 4-(2-chlorophenyl)-3,7,7-trimethyl-6,7,8,9-tetrahydro-2H-pyrazolo[3,4-b]quinolin-5(4H)-one], the concentration for half-maximal inhibition (IC50) in assay [6] was below 100 nM; in assay [8], below 100 nM; in assay [5], 101 to 1000 nM. Moreover, the “ADP Glo Assay GSK3β vs CDK5 fold selectivity” value in assay [7] stood at 6X.
With `Cc1[nH]nc2c1C(c1ccccc1Br)C1=C(CC(C)(C)CC1=O)N2` (centres unmarked) [Compound 16], the IC50 in assay [6] and in assay [8] was below 100 nM throughout. Besides, the “ADP Glo Assay GSK3β vs CDK5 fold selectivity” value in assay [7] is given as 14X.
In the case of `CSc1ccccc1C1C2=C(CC(C)(C)CC2=O)Nc2n[nH]c(C)c21` (centres unmarked) [Compound 25, 3,7,7-trimethyl-4-(2-(methylthio)phenyl)-6,7,8,9-tetrahydro-2H-pyrazolo[3,4-b]quinolin-5(4H)-one], the IC50 in assay [6], in assay [8] and in assay [5] was below 100 nM each time. Besides, in assay [7], the “ADP Glo Assay GSK3β vs CDK5 fold selectivity” value amounted to 124X.
Regarding `Cc1[nH]nc2c1[C@@H](c1ccccc1C#N)C1=C(CC(C)(C)CC1=O)N2` [Compound 32, 2-(3,7,7-trimethyl-5-oxo-4,5,6,7,8,9-hexahydro-2H-pyrazolo[3,4-b]quinolin-4-yl)benzonitrile], the IC50 in assay [6] is below 100 nM; in assay [8] it was below 100 nM; in assay [5], 101 to 1000 nM. In addition, the “ADP Glo Assay GSK3β vs CDK5 fold selectivity” value in assay [7] is 30X.
`Cc1[nH]nc2c1C(c1cccc(C#N)c1)C1=C(CC(C)(C)CC1=O)N2` (centres unmarked) [Compound 33, 3-(3,7,7-trimethyl-5-oxo-4,5,6,7,8,9-hexahydro-2H-pyrazolo[3,4-b]quinolin-4-yl)benzonitrile]: the IC50 in assay [6], in assay [8] and in assay [5] was below 100 nM each time. Besides, the “ADP Glo Assay GSK3β vs CDK5 fold selectivity” value in assay [7] is reported as 131X.
On to `Cc1[nH]nc2c1C(c1cccc3nonc13)C1=C(CC(C)(C)CC1=O)N2` (centres unmarked) [Compound 41], for which, in assay [7], the “ADP Glo Assay GSK3β vs CDK5 fold selectivity” value was 51X. In addition, in assay [8], the IC50 is below 100 nM.
Take `CCc1[nH]nc2c1C(c1ccccc1OC)C1=C(CC(C)(C)CC1=O)N2` (centres unmarked) [Compound 48]: the “ADP Glo Assay GSK3β vs CDK5 fold selectivity” value in assay [7] was 35X. In assay [8], this molecule registered an IC50 below 100 nM.
For the molecule `COc1ccccc1C1C2=C(CC(C)(C)CC2=O)Nc2n[nH]c(C(C)C)c21` (centres unmarked) [Compound 49], the “ADP Glo Assay GSK3β vs CDK5 fold selectivity” value in assay [7] amounted to 14X. This molecule came in with an IC50 in assay [8] below 100 nM.
For `CC1(C)CC(=O)C2=C(C1)Nc1n[nH]c(C(F)(F)F)c1C2c1ccccc1` (centres unmarked) [Compound 52], in that order: 615X and below 100 nM.
In turn, `CC1(C)CC(=O)C2=C(C1)Nc1n[nH]c(C(F)(F)F)c1C2c1ccccc1F` (centres unmarked) [Compound 58] had an IC50 in assay [8] below 100 nM.
As for `CC1(C)CC(=O)C2=C(C1)Nc1n[nH]c(C(F)(F)F)c1C2c1cccc(F)c1C(F)(F)F` (centres unmarked) [Compound 63], the “ADP Glo Assay GSK3β vs CDK5 fold selectivity” value in assay [7] turned out to be 276X. In assay [8], the IC50 is below 100 nM.
Consider `CC1(C)CC(=O)C2=C(C1)Nc1n[nH]c(C(F)(F)F)c1C2c1cc(F)ccc1C(F)(F)F` (centres unmarked) [Compound 64], for which, in assay [7], the “ADP Glo Assay GSK3β vs CDK5 fold selectivity” value is reported as 162X. The same molecule yielded an IC50 in assay [8] below 100 nM.
As for `Cc1[nH]nc2c1C(C)(c1cccc(C(N)=O)c1)C1=C(CC(C)(C)CC1=O)N2` (centres unmarked) [Compound 90, 3-(3,4,7,7-tetramethyl-5-oxo-4,5,6,7,8,9-hexahydro-2H-pyrazolo[3,4-b]quinolin-4-yl)benzamide], the IC50 in assay [6] and in assay [2] was below 100 nM throughout.
For `COC(=O)c1[nH]nc2c1C(C)(c1ccccc1)C1=C(CC(C)(C)CC1=O)N2` (centres unmarked) [Compound 104], the IC50 in assay [6] and in assay [2] was below 100 nM each time.
For `CC1(C)CC(=O)C2=C(C1)Nc1n[nH]c(C3CC3)c1C2(c1ccccc1)C(F)(F)F` (centres unmarked) [Compound 112], the IC50 in assay [6] and in assay [2] was below 100 nM throughout.
For `CC1(C)CC(=O)C2=C(C1)Nc1n[nH]c(C3CC3)c1C2(C)c1ccccc1F` (centres unmarked) [Compound 116], the IC50 in assay [6] and in assay [2] was below 100 nM in each case.
`Cc1[nH]nc2c1[C@](C)(c1ccccc1)C1=C(CC(C)(C)CC1=O)N2` [Compound 123] displayed an IC50 in assay [6] below 100 nM.
